Measured values from ChEMBL document CHEMBL1145156, “Identification of novel extracellular signal-regulated kinase docking domain inhibitors” (J Med Chem, 2005).

How the values were obtained:
A549 = experiment: Inhibitory concentration against growth of A549 lung carcinoma cell; format: functional, cell-based; conditions: Homo sapiens
HeLa = experiment: Inhibitory concentration against HeLa cell colony formation; Range is 15-20 uM; format: functional, cell-based; conditions: Homo sapiens
[1] = biological target: Mitogen-activated protein kinase 1 (Homo sapiens, UniProt P28482); experiment: Dissociation constant for ERK2 kinase
Chain of Mitogen-activated protein kinase 1 (P28482 whole entry): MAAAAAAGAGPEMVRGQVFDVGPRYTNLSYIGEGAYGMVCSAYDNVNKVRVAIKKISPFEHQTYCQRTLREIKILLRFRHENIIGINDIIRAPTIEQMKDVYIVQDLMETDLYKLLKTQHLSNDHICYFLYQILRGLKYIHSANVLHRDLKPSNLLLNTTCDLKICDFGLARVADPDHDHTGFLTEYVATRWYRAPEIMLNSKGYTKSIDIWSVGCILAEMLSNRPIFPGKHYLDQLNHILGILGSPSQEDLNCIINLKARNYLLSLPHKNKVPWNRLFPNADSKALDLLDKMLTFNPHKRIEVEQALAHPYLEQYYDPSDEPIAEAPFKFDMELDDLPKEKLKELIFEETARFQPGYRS

Q: `O=C(CCN1CCN(C/C=C/c2ccccc2)CC1)Nc1ccc(Cl)cc1` was tested. Which IC50 (A549) did it give?
A: 15 µM

Q: What about the IC50 (HeLa) of the same molecule?
A: 20 µM

Q: For `O=C(CSc1nc2ccccc2o1)Nc1ccc(-n2cnnn2)cc1`, which Kd [1] is on record?
A: 5 µM

Q: With `CCOc1ccc(/C=C2\SC(=O)N(CCN)C2=O)cc1` as the molecule, how does the Kd [1] read?
A: 5 µM

Q: What about the IC50 (A549) of the same molecule?
A: 25 µM

Q: What about the IC50 (HeLa) of the same molecule?
A: 20 µM
